Results from patent US20110028447A1, “INDAZOLE DERIVATIVES” (Pfizer Inc., priority 2008, published 2011).
Like-named read-outs stand apart in the source and are kept apart here.

Assays:
[1] = molecular target: T1, human CB1 receptor (Homo sapiens, UniProt P21554); assay: Human CB1 receptor binding, [3H] CP-55,940 displacement on HEK cell membranes; parameters: expressed in transfected cells; host or cells: HEK cells, doxycycline-induced; membrane preparation
Procedure, shortened: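 Radioligand displacement: [3H] CP-55,940 at […] final, 1 μg membrane protein per well from HEK cells with tetracycline-inducible human CB1, 60 min at room temperature, pH 7.4 Tris/NaCl/MgCl2/EGTA/BSA buffer. 50 μM WIN-55,212-2 set nonspecific binding; bound label filtered, counted, and fitted for EC50 and Ki values.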

[2] = molecular target: T1, human CB1 receptor; assay: [35S] GTPγS binding on membranes of CHO cells expressing the human CB1 receptor (agonism); format: biochemical; parameters: expressed in transfected cells; membrane preparation
Experimental: Membrane preparation: CHO cells expressing the human CB1 receptor were grown to 80% confluence in Ham's F-12 Nutrient Medium (Invitrogen) containing 10% fetal bovine serum (Invitrogen), 1% pen/strep (Invitogen), 1% Nonessential amino acids (Invitrogen) and 500 μg/ml G418 (Invitrogen). Cells were released from flasks using Cell Dissociation Buffer (Invitrogen). Cells were pelleted by centrifugation at 500×G for 5 minutes. Membranes were prepared by resuspending cells in ice cold Assay Buffer (25 mM Tris pH 7.4, 5 mM EDTA, 5 mM EGTA, Complete Protease Inhibitor (Roche)). Cells were lysed with 12 strokes of a dounce homogenizer. Unlysed cells were pelleted by centrifugation at 500×G for 5 minutes. Membranes were pelleted by centrifugation at 25,000×G for 30 minutes. Membranes were resuspended in TEE, dounced 12 strokes, and pelleted a second time at 25,000×G for 30 minutes. Membrane pellet was resuspended in 50 mM Tris pH 7.4, 100 mM NaCl, 3 mM MgCl2, 0.2 mM EGTA, Complete Protease Inhibitor (Roche). Protein concentration was determined using the Micro-BCA Protein Assay Kit (Pierce) using BSA as a standard. Membranes were frozen and stored at −80 degrees Celsius until use.
GTPγS Binding: 40 μl of test compound was incubated with 20 μl of [^35S] GTPγS (Perkin Elmer) (1250 Ci/millimole) and 140 μl of membrane homogenate (5 μg/well) in polypropylene 96-well plates (Corning). Final reaction conditions were 50 mM Tris pH 7.4, 100 mM NaCl, 3 mM MgCl2, 0.2 mM EGTA, 0.04% BSA. After incubation at 37 degrees Celsius for 45 minutes reactions were harvested by vacuum filtration through Unifilter GF/B-96 filters (Perkin Elmer) using a FilterMate Plate Harvester (Perkin Elmer). Filters were rinsed 4 times with ice cold 50 mM Tris pH 7.4, 3 mM MgCl2, 0.2 mM EGTA and dried at 50 degrees Celsius for at least 30 minutes. 40 μl of Microscint-20 (Perkin Elmer) was added per well, and plates were counted using a Top-Count Microplate Scintillation Counter (Perkin Elmer). Binding data were analyzed and EC50 values were calculated using Graph Pad Prism 4.0 Software.

[3] = GTPγS EC50, human CB1, CHO cell membranes
[4] = human CB1, CHO cell membranes, read-out: GTPγS EC50

T1 sequence (P21554 whole entry): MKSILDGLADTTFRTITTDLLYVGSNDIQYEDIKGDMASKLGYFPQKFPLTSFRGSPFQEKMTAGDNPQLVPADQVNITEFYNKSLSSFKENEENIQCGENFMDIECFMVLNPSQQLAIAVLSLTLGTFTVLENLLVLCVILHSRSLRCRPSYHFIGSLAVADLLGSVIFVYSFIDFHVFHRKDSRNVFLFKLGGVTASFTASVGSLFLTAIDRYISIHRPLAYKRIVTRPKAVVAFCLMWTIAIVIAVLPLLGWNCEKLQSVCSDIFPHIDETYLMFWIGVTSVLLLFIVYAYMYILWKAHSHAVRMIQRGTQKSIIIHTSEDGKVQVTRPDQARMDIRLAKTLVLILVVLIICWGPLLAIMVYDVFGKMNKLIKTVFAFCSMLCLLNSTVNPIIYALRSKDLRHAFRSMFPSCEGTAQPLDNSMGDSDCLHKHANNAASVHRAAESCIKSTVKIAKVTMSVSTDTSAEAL

SMILES	Ki ([1]; CB1 Ki) [nM]	EC50 [2, 3] [nM]	Ki ([1]; read-out: CB1 Ki) [nM]	EC50 [2, 4] [nM]
CC(C)(C)C(NC(=O)c1nn(Cc2ccc(F)cc2)c2ccc(F)cc12)C(=O)NCCO (stereo not shown) [Example 172]	0.42	0.42		
CC(C)(C)C(NC(=O)c1nn(Cc2ccc(F)cc2)c2ccc(F)cc12)C(=O)NCC(N)=O (stereo not shown) [Example 173]	2.37	5.12		
CC(C)(C)C(NC(=O)c1nn(Cc2ccc(F)cc2)c2ccc(F)cc12)C(=O)NCCCO (stereo not shown) [Example 174]	1.1	1.81		
CC(C)(C)C(NC(=O)c1nn(Cc2ccc(F)cc2)c2c(F)cccc12)C(N)=O (stereo not shown) [Example 175]	0.19	0.64		
CC(C)(C)C(NC(=O)c1nn(Cc2ccc(F)cc2)c2c(F)cccc12)C(=O)NC1CC1 (stereo not shown) [Example 176]	0.22	0.51		
CC(C)(C)C(NC(=O)c1nn(Cc2ccc(F)cc2)c2c(F)cccc12)C(=O)NCCO (stereo not shown) [Example 177]	0.28	0.31		
CC(C)(C)C(NC(=O)c1nn(Cc2ccc(F)cc2)c2c(F)cccc12)C(=O)NCCCO (stereo not shown) [Example 178]	0.56	1.61		
CC(C)(C)C(NC(=O)c1nn(Cc2ccc(F)cc2)c2c(F)cccc12)C(=O)NCC(N)=O (stereo not shown) [Example 179]	0.87	5.41		
CC(C)(C)C(NC(=O)c1nn(Cc2ccc(F)cc2)c2c(F)cccc12)C(=O)NCc1nnc(C(N)=O)o1 (stereo not shown) [Example 180]			0.37	3.81
CC(C)(C)C(NC(=O)c1nn(Cc2ccc(F)cc2)c2c(Cl)cccc12)C(N)=O (stereo not shown) [Example 181]	0.1	0.33		
CC(C)(C)C(NC(=O)c1nn(Cc2ccc(F)cc2)c2c(Cl)cccc12)C(=O)NC1CC1 (stereo not shown) [Example 182]	0.34	2.23		
CC(C)(C)C(NC(=O)c1nn(Cc2ccc(F)cc2)c2c(Cl)cccc12)C(=O)NCCO (stereo not shown) [Example 183]	0.26	0.83		
CC(C)(C)C(NC(=O)c1nn(Cc2ccc(F)cc2)c2c(Cl)cccc12)C(=O)NCCCO (stereo not shown) [Example 184]	0.37	3.94		
CC(C)(C)C(NC(=O)c1nn(Cc2ccc(F)cc2)c2c(Cl)cccc12)C(=O)NCC(N)=O (stereo not shown) [Example 185]	0.51	10.2		
CC(C)(C)C(NC(=O)c1nn(Cc2ccc(F)cc2)c2c(F)cccc12)C(=O)NCCNS(=O)(=O)C1CC1 (stereo not shown) [Example 186]			0.19	1.03
CC(C)(C)[C@H](NC(=O)c1nn(Cc2ccc(F)cc2)c2c(Cl)cccc12)C(=O)NCCNS(=O)(=O)C1CC1 [Example 187]			0.09	1.09
CC(C)(C)C(NC(=O)c1nn(Cc2ccc(C#N)cc2)c2c(Cl)cccc12)C(=O)NC1CC1 (stereo not shown) [Example 198]	1.19	7.07		
CC(C)(C)C(NC(=O)c1nn(Cc2ccc(C#N)cc2)c2c(Cl)cccc12)C(=O)NCCO (stereo not shown) [Example 199]	1.32	8.94		
CC(C)(C)C(NC(=O)c1nn(Cc2ccc(C#N)cc2)c2c(Cl)cccc12)C(=O)NCCCO (stereo not shown) [Example 200]	4.8	35		
CC(C)(C)C(NC(=O)c1nn(Cc2ccc(C#N)cc2)c2c(Cl)cccc12)C(=O)NCC(N)=O (stereo not shown) [Example 201]	14.2	70.1		
CC(C)(C)C(NC(=O)c1nn(Cc2ccc(C#N)cc2)c2c(Cl)cccc12)C(=O)NCCNS(=O)(=O)C1CC1 (stereo not shown) [Example 202]			0.8	3.07
CC(C)(C)C(NC(=O)c1nn(Cc2ccc(C#N)cc2)c2c(Cl)cccc12)C(=O)NCC(O)CO (stereo not shown) [Example 203]	10.2	63.2		

SMILES	Ki ([1]; CB1 Ki) [nM]	EC50 [2, 3] [nM]	Ki ([1]; read-out: CB1 Ki) [nM]	EC50 [2, 4] [nM]
CC(C)(C)[C@H](NC(=O)c1nn(Cc2ccc(F)cc2)c2ccccc12)C(=O)NCC1CCOCC1 [Example 211]	3.08	18.3		
CC(C)(C)[C@H](NC(=O)c1nn(Cc2ccc(C#N)cc2)c2c(F)cccc12)C(=O)N1Cc2ccccc2C1 [Example 213]			15.7	57.7
CC(C)(C)[C@H](NC(=O)c1nn(Cc2ccc(C#N)cc2)c2c(F)cccc12)C(=O)N1CC(O)C1 [Example 214]	3.87	23.4		
CC(C)(C)[C@H](NC(=O)c1nn(Cc2ccc(C#N)cc2)c2c(F)cccc12)C(=O)N[C@@H](CO)c1ccccc1 [Example 215]			7.69	41.3
CC(C)(C)[C@H](NC(=O)c1nn(Cc2ccc(F)cc2)c2ccccc12)C(=O)NCc1nn[nH]n1 [Example 218]	7.92	360		
CC(C)(C)[C@H](NC(=O)c1nn(Cc2ccc(F)cc2)c2ccccc12)C(=O)N1CCN(C(N)=O)CC1 [Example 220]			1.26	3.78
CC(C)(C)[C@H](NC(=O)c1nn(Cc2ccc(F)cc2)c2ccccc12)C(=O)N1CCC(CO)CC1 [Example 223]	1.12	4.76		
CC(C)(C)[C@H](NC(=O)c1nn(Cc2ccc(F)cc2)c2ccccc12)C(=O)N1CCC(CCO)CC1 [Example 224]			6.77	19.3
CC(C)(C)[C@H](NC(=O)c1nn(Cc2ccc(F)cc2)c2ccccc12)C(=O)N1CCC(C(N)=O)CC1 [Example 225]			6.3	26.9
CC(C)(C)[C@H](NC(=O)c1nn(Cc2ccc(F)cc2)c2c(Cl)cc(Cl)cc12)C(N)=O [Example 226]	0.18	0.73		
CC(C)(C)[C@H](NC(=O)c1nn(Cc2ccc(F)cc2)c2ccccc12)C(=O)N1CCN(C(=O)CCC(N)=O)CC1 [Example 228]			4.26	15.1
CC(C)(C)[C@H](NC(=O)c1nn(Cc2ccc(F)cc2)c2ccccc12)C(=O)N[C@@H](CO)C(N)=O [Example 230]	6.5	31.4		
CC(C)(C)[C@H](NC(=O)c1nn(Cc2ccc(F)cc2)c2ccccc12)C(=O)NCCc1nnc(C(N)=O)o1 [Example 231]			2.25	5.12
CC(C)(C)[C@H](NC(=O)c1nn(Cc2ccc(F)cc2)c2ccccc12)C(=O)N1CCN(CC(O)CO)CC1 (stereo partly shown) [Example 233]			2.45	11.5
COC(=O)[C@@H](CO)NC(=O)[C@@H](NC(=O)c1nn(Cc2ccc(F)cc2)c2ccccc12)C(C)(C)C [Example 234]	13.4	36.1		
COC(=O)[C@H](CO)NC(=O)[C@@H](NC(=O)c1nn(Cc2ccc(F)cc2)c2ccccc12)C(C)(C)C [Example 236]	0.94	3.91		
COC(=O)[C@@H](O)CNC(=O)[C@@H](NC(=O)c1nn(Cc2ccc(F)cc2)c2ccccc12)C(C)(C)C [Example 238]	6.46	25.7		
CC(C)(C)[C@H](NC(=O)c1nn(Cc2ccc(F)cc2)c2ccccc12)C(=O)NC(CO)CO [Example 241]	1.65	5.72		
CC(C)(C)[C@H](NC(=O)c1nn(Cc2ccc(F)cc2)c2ccccc12)C(=O)N1CCOCC1 [Example 242]	0.36	3.37		
CC(C)(C)[C@H](NC(=O)c1nn(Cc2ccc(C#N)cc2)c2ccccc12)C(=O)N1CCOCC1 [Example 243]	11.3	91.3		
CC(C)(C)[C@H](NC(=O)c1nn(Cc2ccc(F)cc2)c2ccccc12)C(=O)N1CCN(S(C)(=O)=O)CC1 [Example 244]			2.42	16.2
CC(C)(C)[C@H](NC(=O)c1nn(Cc2ccc(F)cc2)c2ccccc12)C(=O)N1CCN(S(=O)(=O)C2CC2)CC1 [Example 245]			2.61	12.4
